ChEMBL document CHEMBL6087434, “An Activatable Heavy-Atom-Free Upconversion Photosensitizer for Targeted Imaging and Treatment of Tumors” (J Med Chem, 2024)
One block for each compound: values may come before it. Activity calls are given as the source filed them. The rule behind the calls is not given here.

Key:
[1] = Induction of singlet oxygen quantum yield under 808 nm light irradiation by DPBF based assay; assay type: functional
[2] = Induction of singlet oxygen quantum yield assessed as decrease in absorption signal under 415 nm light irradiation measured after 15 mins by DPBF based assay; assay type: functional; set-up: scale not given: the % may be the effect or the level left
A549 [3] = experiment: Induction of singlet oxygen production in human A549 cells by DCF-DA probe based analysis; assay type: functional, cell-based
A549 [4] = experiment: Cytotoxicity against human A549 cells under near-infra red light irradiation; assay type: functional, cell-based
A549 [5] = experiment: Cytotoxicity against NAC-treated human A549 cells by DCF-DA probe based analysis; assay type: functional, cell-based
A549 [6] = experiment: Induction of apoptosis in human A549 cells under 808 nm light irradiation by Annexin V-FITC/PI staining based flow cytometry; assay type: functional, cell-based
[7] = Photostability of compound upto 2 W/cm2 measured for 8 mins; assay type: physicochemical
[8] = Induction of singlet oxygen quantum yield under 808 nm light irradiation in presence of NTR by DPBF based assay; assay type: functional
[9] = Drug metabolism assessed as NTR(unknown origin)-mediated metabolism under 745 nm light irradiation by fluorescence based analysis; assay type: ADME; details: human
[10] = Drug metabolism in human A549 cells assessed as NTR-mediated metabolism under 10 to 20 percent oxygen at 10 uM incubated for 30 mins by confocal fluorescence imaging based analysis; assay type: ADME, cell-based; details: a549, 0.5 h
[11] = Drug metabolism in human A549 cells assessed as NTR-mediated metabolism under 5 percent oxygen at 10 uM incubated for 30 mins by DAPI staining based CLSM analysis; assay type: ADME, cell-based; details: a549, 0.5 h
[12] = Drug localization in human A549 cells assessed as co-localization co-efficient at 10 uM by LysoTracker Green DND-2 dye based analysis; assay type: ADME, cell-based; details: a549, 10 µM
[13] = Drug localization in human HeLa cells assessed as co-localization co-efficient at 10 uM by LysoTracker Green DND-2 dye based analysis; assay type: ADME, cell-based
A549 [14] = experiment: Cytotoxicity against human A549 cells assessed as survival rate under absence of light upto 10 uM measured after 12 hrs by MTT assay relative to control; assay type: functional; details: up to 10 µM
HeLa [15] = experiment: Cytotoxicity against human HeLa cells assessed as survival rate under absence of light upto 10 uM measured after 12 hrs by MTT assay relative to control; assay type: functional; details: up to 10 µM
4T1 [16] = experiment: Cytotoxicity against mouse 4T1 cells assessed as survival rate under absence of light upto 10 uM measured after 12 hrs by MTT assay relative to control; assay type: functional; details: up to 10 µM
A549 [17] = experiment: Cytotoxicity against human A549 cells assessed as survival rate under laser light irradiation measured after 12 hrs by MTT assay; assay type: functional, cell-based; details: dose <= 10.0 µM
HeLa [18] = experiment: Cytotoxicity against human HeLa cells assessed as survival rate under laser light irradiation measured after 12 hrs by MTT assay; assay type: functional, cell-based; details: dose <= 10.0 µM
4T1 [19] = experiment: Cytotoxicity against mouse 4T1 cells assessed as survival rate under laser light irradiation measured after 12 hrs by MTT assay; assay type: functional, cell-based; details: dose <= 10.0 µM
A549 [20] = experiment: Cytotoxicity against human A549 cells assessed as survival rate under laser light irradiation at 2.5 uM measured after 12 hrs by MTT assay relative to control; assay type: functional; details: A549, light or radiation study, read-out: Survival
HeLa [21] = experiment: Cytotoxicity against human HeLa cells assessed as survival rate under laser light irradiation at 2.5 uM measured after 12 hrs by MTT assay relative to control; assay type: functional; details: light or radiation study, read-out: Survival
4T1 [22] = experiment: Cytotoxicity against mouse 4T1 cells assessed as survival rate under laser light irradiation at 2.5 uM measured after 12 hrs by MTT assay relative to control; assay type: functional; details: 4T1, light or radiation study, read-out: Survival
A549 [23] = experiment: Cytotoxicity against human A549 cells assessed as survival rate under laser light irradiation at 10 uM measured after 12 hrs by MTT assay relative to control; assay type: functional; details: A549, light or radiation study, read-out: Survival
HeLa [24] = experiment: Cytotoxicity against human HeLa cells assessed as survival rate under laser light irradiation at 10 uM measured after 12 hrs by MTT assay relative to control; assay type: functional; details: light or radiation study, read-out: Survival
4T1 [25] = experiment: Cytotoxicity against mouse 4T1 cells assessed as survival rate under laser light irradiation at 10 uM measured after 12 hrs by MTT assay relative to control; assay type: functional; details: 4T1, light or radiation study, read-out: Survival
A549 [26] = experiment: Induction of singlet oxygen production in human A549 cells under 808 nm light irradiation by DCF-DA probe based analysis; assay type: functional, cell-based
A549 [27] = experiment: Cytotoxicity against human A549 cells under 808 nm light irradiation by DCF-DA probe based analysis; assay type: functional, cell-based
A549 [28] = experiment: Inhibition of cell migration in human A549 cells under 808 nm light irradiation measured for 18 hrs by wound healing assay; assay type: functional, cell-based
[29] = Drug uptake in mouse model xenografted with human A549 cells at 300 uM, iv measured after 90 mins by fluorescence based imaging analysis; assay type: ADME, organism-based; details: in vivo, 1.5 h
[30] = Drug uptake in human A549 cells xenografted in mouse model at 300 uM, iv measured after 2 hrs by fluorescence based imaging analysis; assay type: ADME, organism-based; details: in vivo
A549 [31] = experiment: Antitumor activity against human A549 cells xenografted in mouse model assessed as tumor growth inhibition at 300 uM, iv administered every other day under laser light irradiation for 14 days; assay type: functional, organism-based; details: time 14.0 day
A549 [32] = experiment: Antitumor activity against human A549 cells xenografted in mouse model assessed as tumor disappearance at 300 uM, iv administered every other day under laser light irradiation for 14 days relative to control; assay type: functional; details: time 14 day
A549 [33] = experiment: Antitumor activity against human A549 cells xenografted in mouse model assessed as decrease in tumor re-occurence at 300 uM, iv administered every other day under laser light irradiation measured after 14 days during observation period; assay type: functional, organism-based; details: time 14.0 day
[34] = Toxicity in mouse model xenografted with human A549 cells assessed as body weight change at 300 uM, iv measured for 14 days; assay type: organism-based; details: 336 h, time 14 day
A549 [35] = experiment: Antitumor activity against human A549 cells xenografted in mouse model assessed as cellular structural damage at 300 uM, iv administered every other day under laser light irradiation measured after 14 days by H and E staining based analysis; assay type: functional, organism-based; details: time 14.0 day
A549 [36] = experiment: Antitumor activity against human A549 cells xenografted in mouse model assessed as presence of necrotic cells at 300 uM, iv administered every other day under laser light irradiation measured after 14 days by H and E staining based analysis; assay type: functional, organism-based; details: time 14.0 day
[37] = Toxicity in mouse model xenografted with human A549 cells assessed as damage in heart at 300 uM, iv measured after 14 days by H and E staining based analysis; assay type: organism-based; details: 336 h, time 14 day
[38] = Toxicity in mouse model xenografted with human A549 cells assessed as damage in liver at 300 uM, iv measured after 14 days by H and E staining based analysis; assay type: organism-based; details: 336 h, time 14 day
[39] = Toxicity in mouse model xenografted with human A549 cells assessed as damage in spleen at 300 uM, iv measured after 14 days by H and E staining based analysis; assay type: organism-based; details: 336 h, time 14 day
[40] = Toxicity in mouse model xenografted with human A549 cells assessed as damage in lung at 300 uM, iv measured after 14 days by H and E staining based analysis; assay type: organism-based; details: 336 h, time 14 day
[41] = Toxicity in mouse model xenografted with human A549 cells assessed as damage in kidney at 300 uM, iv measured after 14 days by H and E staining based analysis; assay type: organism-based; details: 336 h, time 14 day
[42] = Drug metabolism in human L02 cells assessed as NTR-mediated metabolism at 10 uM incubated for 30 mins by DAPI staining based CLSM analysis; assay type: ADME, cell-based; details: l02, 0.5 h
[43] = Drug metabolism in human A549 cells assessed as NTR-mediated metabolism at 10 uM incubated for 30 mins by DAPI staining based CLSM analysis; assay type: ADME, cell-based; details: a549, 0.5 h
[44] = Drug metabolism in human HeLa cells assessed as NTR-mediated metabolism at 10 uM incubated for 30 mins by DAPI staining based CLSM analysis; assay type: ADME, cell-based; details: 0.5 h

Compound: CC[N+]1=C(/C=C/C2=C3Oc4cc(O)ccc4C=C3CCC2)C(C)(C)c2c1ccc1ccccc21
Activity [1]: 0.002

Compound: CC[N+]1=C(/C=C/C2=C3Oc4cc(N)ccc4C=C3CCC2)C(C)(C)c2c1ccc1ccccc21
Activity [1]: 0.008

Stability [7]: Stable
Compound: CC[N+]1=C(/C=C/C2=C3Oc4cc(NC)ccc4C=C3CCC2)C(C)(C)c2c1ccc1ccccc21.[I-]
Activity [1]: 0.059 | Activity [2]: 74.7% | Activity (A549 [3]): Active | Activity (A549 [4]): Active | Activity (A549 [5]): inactive | Activity (A549 [6]): Active | Activity [8]: inactive

Compound: CC[N+]1=C(/C=C/C2=C3Oc4cc(NC)ccc4C=C3CCC2)C(C)(C)c2ccccc21
Activity [1]: 0.005

Compound: CC[N+]1=C(/C=C/C2=C3Oc4cc(N(C)C(=O)OCc5ccc([N+](=O)[O-])cc5)ccc4C=C3CCC2)C(C)(C)c2c1ccc1ccccc21.I
Activity (A549 [6]): Active | Drug metabolism [9]: metabolite_detected | Drug metabolism [10]: metabolite_notdetected | Drug metabolism [11]: metabolite_detected | Activity [12]: 0.9 | Activity [13]: 0.88 | Survival (A549 [14]): >85% | Survival (HeLa [15]): >85% | Survival (4T1 [16]): >85% | Activity (A549 [17]): Dose-dependent-effect | Activity (HeLa [18]): Dose-dependent-effect | Activity (4T1 [19]): Dose-dependent-effect | viability at 2.5 µM (A549 [20]): < 80% | viability at 2.5 µM (HeLa [21]): < 80% | viability at 2.5 µM (4T1 [22]): < 80% | viability at 10 µM (A549 [23]): < 40% | viability at 10 µM (HeLa [24]): < 40% | viability at 10 µM (4T1 [25]): < 40% | Activity (A549 [26]): Active | Activity (A549 [27]): Active | inhibition (A549 [28]): Active | Drug uptake [29]: Active | Drug uptake [30]: Active | inhibition (A549 [31]): Active | Activity (A549 [32]): ~100% | Activity (A549 [33]): Active | Activity [34]: Non-toxic | Activity (A549 [35]): Active | Activity (A549 [36]): Active | Activity [37]: Non-toxic | Activity [38]: Non-toxic | Activity [39]: Non-toxic | Activity [40]: Non-toxic | Activity [41]: Non-toxic

Drug metabolism [42]: metabolite_detected
Compound: COBALTOUS CHLORIDE

Compound: CC[N+]1=C(/C=C/C2=C3Oc4cc(O)ccc4C=C3CCC2)C(C)(C)c2ccccc21
Activity [1]: 0.002

Compound: CC[N+]1=C(/C=C/C2=C3Oc4cc(N)ccc4C=C3CCC2)C(C)(C)c2ccccc21
Activity [1]: 0.005

Drug metabolism [43]: metabolite_notdetected | Drug metabolism [44]: metabolite_notdetected
Compound: O=c1oc2ccccc2c(O)c1Cc1c(O)c2ccccc2oc1=O [DICUMAROL]
Activity (A549 [26]): inactive | Activity (A549 [27]): inactive
